{"source": "ChEMBL document CHEMBL1201862", "about": "“PubChem BioAssay data set” (2004)", "key": {"Caspase-3": {"target": "T1, Caspase-3 (Homo sapiens, UniProt P42574)", "T1 sequence (P42574 whole entry)": "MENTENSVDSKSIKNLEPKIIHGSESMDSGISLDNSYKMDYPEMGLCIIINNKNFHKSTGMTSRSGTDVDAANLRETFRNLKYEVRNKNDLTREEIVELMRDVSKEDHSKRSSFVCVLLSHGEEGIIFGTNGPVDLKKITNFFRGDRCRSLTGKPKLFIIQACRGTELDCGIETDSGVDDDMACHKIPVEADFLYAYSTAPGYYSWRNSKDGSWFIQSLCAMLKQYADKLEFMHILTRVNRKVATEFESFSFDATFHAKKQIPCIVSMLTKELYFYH", "assay": "caspase-3 inhibitors as off-family protease, SAR follow-up, selectivity assay for SENP protease inhibitor project, biochemical, luminescence, set 2 (AID 588599)", "type": "functional"}, "[1]": {"target": "T2, Sentrin-specific protease 8 (Homo sapiens, UniProt Q96LD8)", "T2 sequence (Q96LD8 whole entry)": "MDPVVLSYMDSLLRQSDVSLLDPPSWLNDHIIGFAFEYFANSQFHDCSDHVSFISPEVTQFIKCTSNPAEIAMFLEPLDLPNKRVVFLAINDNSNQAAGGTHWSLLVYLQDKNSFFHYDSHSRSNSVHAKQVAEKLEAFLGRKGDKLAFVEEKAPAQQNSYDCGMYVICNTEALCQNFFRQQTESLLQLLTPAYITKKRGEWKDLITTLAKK", "assay": "SENP8 protease inhibitors, SAR follow-up, biochemical, luminescence, set 2 (AID 588601)", "type": "functional"}, "[2]": {"target": "T3, Sentrin-specific protease 7 (Homo sapiens, UniProt Q9BQF6)", "T3 sequence (Q9BQF6 whole entry)": "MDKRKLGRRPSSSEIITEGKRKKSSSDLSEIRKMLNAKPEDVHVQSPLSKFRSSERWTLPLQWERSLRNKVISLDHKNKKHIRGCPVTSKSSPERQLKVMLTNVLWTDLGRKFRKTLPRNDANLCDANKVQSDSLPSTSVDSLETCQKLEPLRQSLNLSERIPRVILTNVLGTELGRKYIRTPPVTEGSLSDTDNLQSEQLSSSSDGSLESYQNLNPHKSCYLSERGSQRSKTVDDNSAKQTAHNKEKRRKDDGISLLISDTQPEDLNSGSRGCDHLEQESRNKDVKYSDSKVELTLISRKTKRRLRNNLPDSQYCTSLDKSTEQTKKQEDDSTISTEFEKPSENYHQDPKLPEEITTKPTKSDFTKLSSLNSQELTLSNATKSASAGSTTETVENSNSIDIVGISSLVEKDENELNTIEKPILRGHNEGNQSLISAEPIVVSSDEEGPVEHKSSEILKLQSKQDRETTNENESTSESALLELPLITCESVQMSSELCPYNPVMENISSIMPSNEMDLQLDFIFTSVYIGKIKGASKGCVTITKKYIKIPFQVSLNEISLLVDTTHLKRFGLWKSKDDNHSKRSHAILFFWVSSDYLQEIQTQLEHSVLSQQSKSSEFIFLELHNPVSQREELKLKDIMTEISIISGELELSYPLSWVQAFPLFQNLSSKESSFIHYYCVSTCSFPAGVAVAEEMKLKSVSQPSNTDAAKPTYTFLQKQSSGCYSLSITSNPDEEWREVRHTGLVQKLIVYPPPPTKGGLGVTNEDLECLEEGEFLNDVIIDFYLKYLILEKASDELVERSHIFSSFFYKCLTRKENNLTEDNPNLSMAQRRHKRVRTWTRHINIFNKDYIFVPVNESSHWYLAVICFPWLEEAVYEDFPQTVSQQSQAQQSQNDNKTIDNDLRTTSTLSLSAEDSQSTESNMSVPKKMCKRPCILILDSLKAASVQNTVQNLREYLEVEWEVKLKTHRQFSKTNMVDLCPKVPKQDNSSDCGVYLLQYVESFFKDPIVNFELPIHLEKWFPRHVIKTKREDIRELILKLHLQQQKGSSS", "assay": "SENP7 protease inhibitors, SAR follow-up, biochemical, luminescence, set 2 (AID 588600)", "type": "functional"}, "[3]": {"target": "T4, Sentrin-specific protease 6 (Homo sapiens, UniProt Q9GZR1)", "T4 sequence (Q9GZR1 whole entry)": "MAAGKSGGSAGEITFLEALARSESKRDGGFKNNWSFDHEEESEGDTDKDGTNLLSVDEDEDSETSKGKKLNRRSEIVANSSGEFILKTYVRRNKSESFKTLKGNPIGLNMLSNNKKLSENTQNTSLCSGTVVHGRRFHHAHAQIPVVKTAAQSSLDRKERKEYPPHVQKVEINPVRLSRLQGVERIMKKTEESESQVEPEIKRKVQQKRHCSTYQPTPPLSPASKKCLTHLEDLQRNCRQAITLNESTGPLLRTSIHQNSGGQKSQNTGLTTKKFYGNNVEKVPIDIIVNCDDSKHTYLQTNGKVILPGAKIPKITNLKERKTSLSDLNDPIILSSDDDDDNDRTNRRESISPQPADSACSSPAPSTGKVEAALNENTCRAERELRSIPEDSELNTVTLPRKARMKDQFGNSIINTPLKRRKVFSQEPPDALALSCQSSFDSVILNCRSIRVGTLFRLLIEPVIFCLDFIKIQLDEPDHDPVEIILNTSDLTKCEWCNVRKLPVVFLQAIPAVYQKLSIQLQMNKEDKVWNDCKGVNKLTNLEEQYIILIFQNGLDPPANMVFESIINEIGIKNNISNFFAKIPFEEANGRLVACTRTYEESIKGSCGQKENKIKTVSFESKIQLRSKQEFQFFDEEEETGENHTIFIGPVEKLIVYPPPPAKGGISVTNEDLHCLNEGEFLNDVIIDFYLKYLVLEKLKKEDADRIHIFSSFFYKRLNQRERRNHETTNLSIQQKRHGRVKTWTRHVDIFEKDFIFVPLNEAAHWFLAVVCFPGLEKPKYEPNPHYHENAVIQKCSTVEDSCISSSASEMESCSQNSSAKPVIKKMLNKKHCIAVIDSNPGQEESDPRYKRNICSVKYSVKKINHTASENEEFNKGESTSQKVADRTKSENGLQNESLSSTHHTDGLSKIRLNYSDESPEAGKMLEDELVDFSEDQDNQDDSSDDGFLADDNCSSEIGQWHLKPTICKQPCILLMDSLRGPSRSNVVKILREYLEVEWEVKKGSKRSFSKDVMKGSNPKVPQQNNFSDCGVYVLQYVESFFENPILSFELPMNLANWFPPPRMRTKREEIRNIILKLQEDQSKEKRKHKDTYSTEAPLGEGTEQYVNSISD", "assay": "SENP6 protease inhibitors, SAR follow-up, biochemical, luminescence, set 2 (AID 588598)", "type": "functional"}, "[4]": {"target": "Platelet-activating factor acetylhydrolase (Mus musculus, UniProt Q60963)", "sequence (Q60963 whole entry)": "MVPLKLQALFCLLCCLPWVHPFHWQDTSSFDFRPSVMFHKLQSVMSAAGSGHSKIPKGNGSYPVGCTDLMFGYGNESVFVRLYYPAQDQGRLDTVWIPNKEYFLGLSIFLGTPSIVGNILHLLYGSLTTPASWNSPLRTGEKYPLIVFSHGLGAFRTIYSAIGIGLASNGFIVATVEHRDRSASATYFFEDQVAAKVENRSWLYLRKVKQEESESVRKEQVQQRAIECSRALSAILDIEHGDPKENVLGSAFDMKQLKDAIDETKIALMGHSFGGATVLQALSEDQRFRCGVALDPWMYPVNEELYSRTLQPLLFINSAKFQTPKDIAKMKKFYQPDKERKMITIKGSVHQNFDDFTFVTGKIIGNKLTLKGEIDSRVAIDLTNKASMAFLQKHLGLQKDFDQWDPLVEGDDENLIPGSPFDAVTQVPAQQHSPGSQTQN", "assay": "Late stage assay provider results from the probe development effort to identify inhibitors of plasma platelet activating factor acetylhydrolase (pPAFAH): fluorescence-based dose response biochemical gel-based competitive Activity-Based Protein Profiling (ABPP) assay for HTS compounds. [Related pubchem assays (depositor defined):AID463082, AID463092, AID463230, AID588474]", "type": "cell-free"}, "[5]": {"assay": "microbe, parasite or virus in culture", "type": "functional", "settings": "Mycobacterium tuberculosis"}, "[6]": {"assay": "A Cell Based Secondary Assay to Explore Cytotoxicity in THP-1 Cells of Compounds that Modulate Mycobacterium tuberculosis in Media Containing Glycerol versus Media without Glycerol (2).", "type": "functional"}, "[7]": {"assay": "Vero cell cytotoxicity, cytotoxicity control for M. tuberculosis inhibitor project, purified and synthesized samples, set 3 (AID 504684)", "type": "functional", "settings": "[…]"}, "[8]": {"assay": "A Cell Based Secondary Assay to Explore Cytotoxicity in HepG2 Cells of Compounds that Modulate Mycobacterium tuberculosis in Media Containing Glycerol versus Media without Glycerol (2).", "type": "functional"}}, "note": "Activity calls are given as the source filed them."}
{"molecule": "O=S(=O)(c1ccc2[nH]cc(/C=N\\NC(=S)Nc3cccc(Cl)c3)c2c1)N1CCCCC1", "values": [{"measurement": "IC50", "setting": "Caspase-3", "value": "> 99 µM (inactive)"}, {"measurement": "IC50", "setting": "[1]", "value": "> 99 µM (inactive)"}, {"measurement": "IC50", "setting": "[2]", "value": "> 99 µM (inactive)"}, {"measurement": "IC50", "setting": "[3]", "value": "> 99 µM (inactive)"}]}
{"molecule": "CN(C)C(=O)Oc1noc2cc(Cl)ccc12", "values": [{"measurement": "IC50", "setting": "[4]", "value": "0.234 µM (active)"}]}
{"molecule": "Oc1ccccc1/C=N/Nc1ccnc(SCc2ccccc2)n1", "values": [{"measurement": "CC50", "setting": "[5]", "value": "> 40 µM (active)"}, {"measurement": "CC50", "setting": "[6]", "value": "57.4 µM (active)"}, {"measurement": "CC50", "setting": "[7]", "value": "26.7 µM (active)"}, {"measurement": "CC50", "setting": "[8]", "value": "18.5 µM (active)"}]}
